Source: patent publication US6495376B1, “Methods and compositions for regulating protein-protein interactions” (Beth Israel Deaconess Medical Center, priority 1999, dated 2002)

Experiments:
[1] = target: EQPLpTPVTDL (Cdc25 Peptide); experiment: Fluorescence anisotropy binding to fluorescein-labeled phosphorylated Cdc25 peptide; conditions: GST-WW-domains
[2] = target: […] (Cdc25 Peptide, nonphosphorylated); experiment: GST-WW-domain incubated with peptide on a membrane, immunoblotting with GST antibody; format: binding
[3] = system: phosphorylated tau; experiment: GST-Pin1 pulldown of tau; format: binding; conditions: for binding to Cdc2 phosphorylated tau: tau phosphorylated by Cdc2 in vitro
Sequence of phosphorylated tau (P10636 45-216 isoform P10636-2 limits assumed): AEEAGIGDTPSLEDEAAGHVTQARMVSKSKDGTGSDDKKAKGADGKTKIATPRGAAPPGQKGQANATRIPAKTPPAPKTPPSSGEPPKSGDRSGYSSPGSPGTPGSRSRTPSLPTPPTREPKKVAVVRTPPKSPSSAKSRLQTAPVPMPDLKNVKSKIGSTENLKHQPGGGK
Sequence of Cdc2 phosphorylated tau (P10636 45-219 isoform P10636-2 limits assumed): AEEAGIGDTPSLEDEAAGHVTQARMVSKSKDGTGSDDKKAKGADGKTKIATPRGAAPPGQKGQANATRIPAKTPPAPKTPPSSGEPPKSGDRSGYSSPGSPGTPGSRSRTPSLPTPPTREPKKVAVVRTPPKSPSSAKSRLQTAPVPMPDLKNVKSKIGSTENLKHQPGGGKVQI
Text: Pin1 binds and regulates the function of a defined subset of mitotic phosphoproteins by interacting with conserved phosphorylated Ser/Thr-Pro motifs that are also recognized by MPM-2, a mitosis-specific, phosphorylation-dependent monoclonal antibody (mAb) (Yaffe, M. B. et al., Science 278:1957-1960 (1997); Shen, M. et al., Genes Dev. 12:706-720 (1 998)). Tau is an MPM-2 antigen phosphorylated on multiple Ser/Thr-Pro motifs during mitosis (Illenberger, S. et al., Mol Biol Cell 9:1495-1512 (1998)). Experiments were undertaken to determine whether Pin1 binds tau. Tau isoform was either synthesized by in vitro transcription and translation in the presence of ^35S-Met or produced in bacteria as an N-terminal His-tagged protein, followed by purification using NTA-Ni columns (Yaffe, M. B. et al., Science 278:1957-1960 (1997); Shen, M. et al., Genes Dev. 12:706-720 (1998)). To generate interphase- and mitosis-specific phosphorylated form of tau, tau was incubated with Xenopus interphase and mitotic extracts, respectively (Shen, M. et al., Genes Dev. 12:706-720 (1998)). To prepare Cdc2 phosphorylated tau, purified recombinant tau was incubated with purified cyclin B/Cdc2 (UBI) for 6 to 12 hr at room temperature in a buffer containing 500 μM cold ATP, plus trace [^32P]-ATP in some experiments, (Vincent, I. et al., J Neurosci 17:3588-3598 (1997)).
Pin1 interactions with tau in AD brains were examined using a GST-Pin1 pulldown assay (Shen, M. et al., Genes Dev. 12:706-720 (1998)). Glutathione beads containing GST or GST-Pin1 were incubated with normal or AD brain extracts, or PHFs purified (Vincent, I. J. and Davies, P. Proc Natl Acad Sci USA 89:2878-2882 (1992)), and proteins associated with the beads were subjected to immunoblotting analysis using CP27, which recognizes all forms of tau. Recombinant and mutant Pin1 proteins were produced as N-terminal GST or His-tagged fusion proteins (Shen, M. et al., Genes Dev. 12:706-720 (1998)). PHFs were purified by immunoaffinity chromatography (Vincent, I. J. and Davies, P. Proc Natl Acad Sci USA 89:2878-2882 (1992)).
To determine whether Pin1 interacts with pT231-tau, GST-Pin1 beads were used to isolate tau from AD brain extracts or PHFs and T231 phosphorylation detected using CP9. Tau isolated by Pin1 beads was strongly immunoreactive with CP9. […] Thus, Pin1 binds pT231-tau through its WW-domain.

[4] = system: peptide substrate; experiment: PPIase activity assay with peptide substrate; format: biochemical; conditions: relative to wild-type protein defined as 100%
[5] = system: Cdc2 phosphorylated tau; experiment: Binding of Cdc2 phosphorylated tau to Taxol-stabilized microtubules; format: biochemical; conditions: Pin1 0.1 mg/ml, tau 0.1 mg/ml
Text: The high affinity interaction between Pin 1 and phosphorylated tau can affect the biological activity of tau. Upon phosphorylation by many protein kinases, including Cdc2, tau loses its ability to bind microtubules (MTs) and promote MT assembly (Bramblett, G. T. et al., Neuron 10:1089-1099 (1993); Iqbal, K. et al., FEBS Lett 349:104-108 (1994); Yoshida, H. and Ihara, Y. J Neurochem 61:1183-1186 (1993); Alonso, A. C. et al., Proc Natl Acad Sci USA 91:5562-5566 (1994); Busciglio, J. et al., Neuron 14:879-888 (1995)) although the exact mechanism is not fully understood. To determine whether Pin1 can restore the ability of phosphorylated tau to bind MTs, phosphorylated tau was produced using purified Cdc2 (Vincent, I. et al., J Cell Biol 132:413-425 (1996); Vincent, I. et al., J Neurosci 17:3588-3598 (1997)) and assessed for its ability to bind Taxol-stabilized MTs in the presence or absence of Pin1. […] Pin1 was detected in the fraction of tau-bound MTs confirming interaction between Pin1 and phosphorylated tau.
The effect of Pin1 on the ability of phosphorylated tau to promote MT assembly was determined using light-scattering assays (Bramblett, G. T. et al., Neuron 10:1089-1099(1993); Alonso, A. C. et al., Proc Natl Acad Sci USA 91:5562-5566 (1994); Busciglio, J. et al., Neuron 14:879-888 (1995)). […]

[6] = system: tau-promoted MT assembly; experiment: Microtubule assembly light-scattering assay (turbidity at 350 nm); format: biochemical; conditions: 0.05 mg/ml protein, 0.05 mg/ml tau
Sequence of tau-promoted MT assembly (P10636 45-219 isoform P10636-2 limits assumed): as above
Method: The effect of Pin1 on the ability of phosphorylated tau to promote MT assembly was determined using light-scattering assays (Bramblett, G. T. et al., Neuron 10:1089-1099(1993); Alonso, A. C. et al., Proc Natl Acad Sci USA 91:5562-5566 (1994); Busciglio, J. et al., Neuron 14:879-888 (1995)). Briefly, MTs were assembled from phosphocellulose purified bovine tubulin (Cytoskeleton, Inc) and stabilized by Taxol. The nonphosphorylated or Cdc2 phosphorylated recombinant tau (0.1 mg/ml) was incubated with Pin1 (0.1 mg/ml) at 35° C. for 5 min before adding to the MTs. Bound tau was isolated by centrifugation (50,000×g) at 25° C. for 20 min, followed by immunoblotting analysis using CP27 and Pin1 antibodies. The ability of tau to promote MT assembly was determined using well established light-scattering assays. Briefly, the assembly of MTs was initiated by incubating tubulin (2 mg/ml) with or without tau (0.05 mg/ml) in 80 mM PIPES, pH 6.8, 1 mM EGTA, 1 mM MgCl2, 1 mM GTP, 20% glycerol at 35° C. for 2 min. The mixture was then transferred to a 100 μl cuvet and the rate of the MT assembly was monitored at room temperature using the turbidity increase at 350 nm. To examine the effect of Pin1, Pin1 or its mutant (0.05 mg/ml) was pre-incubated with tau or Cdc2 phosphorylated tau (0.05 mg/ml) at 35° C. for 5 min before the MT assembly assays.

Pin1 WW-domain: N-terminal WW-domain (amino acids 1-54) of Pin1 (MADEEKLPPGWEKRMSRSSGRVYYFNHITNASQWERPSGNSSSGGKNGQGEPAR; left off: a dimerising Fc or GST)
Kd [1]: 2.2 µM | Kd (μM) Cdc25 Peptide EQPLTPVTDL [2]: N.B.* | binding to Cdc2 phosphorylated tau [3]: bound Cdc2 phosphorylated tau

Pin1: wild-type human prolyl isomerase (PPIase) Pin1 with N-terminal WW-domain; tag cleaved in Table 2
PPlase Activity (%) [4]: 100% | binding to tau of brain extracts ([3]; AD brain extracts, PHFs or age-matched normal brain extracts): did not bind tau in age-matched normal brain extracts | binding to tau incubated with Xenopus extracts ([3]; interphase or mitotic extracts): did bind tau that was phosphorylated by mitotic extracts | binding to Cdc2 phosphorylated tau [3]: bound Cdc2 phosphorylated tau | restoration of binding of Cdc2 phosphorylated tau to MTs [5]: binding was restored | effect on ability of Cdc2 phosphorylated tau to promote MT assembly [6]: restored the ability of Cdc2 phosphorylated tau to promote MT assembly | effect on ability of nonphosphorylated tau to promote MT assembly [6]: no effect
